Results from patent US20230085307A1, “PYRIDAZINONE COMPOUND AND HERBICIDE” (NISSAN CHEMICAL CORPORATION, priority 2019, published 2023).

Legend:
southern crabgrass [1] = test: Test Example 4: herbicidal effect by soil treatment (Table 19, symbol F); format: in vivo, southern crabgrass (Digitaria ciliaris); settings: amount of applied herbicide 320 g/ha
In short: (§1)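 In this soil treatment, the formulated compound reached the seeds only through the soil: seeds were buried about 1.5 cm deep in sterilized diluvial soil, then the diluted emulsion was sprayed over the surface. After three weeks at 25° C. to 30° C. in a greenhouse, effects were graded on criteria from an earlier test.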

velvetleaf [2] = test: Test Example 4: herbicidal effect by soil treatment (Table 19, symbol M); format: in vivo, velvetleaf (Abutilon theophrasti); settings: amount of applied herbicide 320 g/ha
In short: as §1

chickweed [3] = test: Test Example 4: herbicidal effect by soil treatment (Table 19, symbol P); format: in vivo, common chickweed (Stellaria media); settings: amount of applied herbicide 320 g/ha
In short: as §1

lambsquarters [4] = test: Test Example 4: herbicidal effect by soil treatment (Table 19, symbol O); format: in vivo, lambsquarters (Chenopodium album); settings: amount of applied herbicide 320 g/ha
In short: as §1

redroot pigweed [5] = test: Test Example 5: herbicidal effect by foliage application, plastic box (Table 20, symbol N); format: in vivo, redroot pigweed (Amaranthus retroflexus); settings: 320 g/ha, evaluated three weeks after application
In short: (§2)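 Plants were sown into sterilized diluvial soil under about 1.5 cm cover and kept in a greenhouse at 25° C. to 30° C. Fourteen days on, foliage received an even spray of the diluted emulsion. Herbicidal or crop effect was judged three weeks afterwards.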

barnyard grass [6] = test: Test Example 3: herbicidal effect by foliage application, Wagner pot (Table 18, symbol H); format: in vivo, barnyard grass (Echinochloa crus-galli)
In short: (§3)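 Plants were sown in alluvial soil held under 0.1–0.5 cm standing water and grown 14 days in a greenhouse at 25–30 °C. An emulsifiable formulation, water-diluted to the set dose, was then sprayed onto the foliage, and effects were scored three weeks later using previously defined criteria.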

persian speedwell [7] = test: Test Example 5: herbicidal effect by foliage application, plastic box (Table 20, symbol R); format: in vivo, Persian speedwell (Veronica persica); settings: 320 g/ha, evaluated three weeks after application
In short: as §2

chickweed [8] = test: Test Example 5: herbicidal effect by foliage application, plastic box (Table 20, symbol P); format: in vivo, common chickweed (Stellaria media); settings: 320 g/ha, evaluated three weeks after application
In short: as §2

windgrass [9] = test: Test Example 5: herbicidal effect by foliage application, plastic box (Table 20, symbol L); format: in vivo, windgrass (Apera spica-venti); settings: foliage application, 320 g/ha, evaluated three weeks after application
In short: as §2

Chinese sprangletop = test: Test Example 3: herbicidal effect by foliage application, Wagner pot (Table 18, symbol D); format: in vivo, chinese sprangletop (Leptochloa chinensis)
In short: as §3

Italian ryegrass [10] = test: Test Example 5: herbicidal effect by foliage application, plastic box (Table 20, symbol K); format: in vivo, Italian ryegrass (Lolium multiflorum); settings: 320 g/ha, evaluated three weeks after application
In short: as §2

rice flat sedge = test: Test Example 3: herbicidal effect by foliage application, Wagner pot (Table 18, symbol E); format: in vivo, rice flat sedge (Cyperus iria)
In short: as §3

barnyard grass [11] = test: Test Example 5: herbicidal effect by foliage application, plastic box (Table 20, symbol H); format: in vivo, barnyard grass (Echinochloa crus-galli); settings: 320 g/ha, evaluated three weeks after application
In short: as §2

barnyard grass [12] = test: Test Example 4: herbicidal effect by soil treatment (Table 19, symbol H); format: in vivo, barnyard grass (Echinochloa crus-galli); settings: amount of applied herbicide 320 g/ha
In short: as §1

Italian ryegrass [13] = test: Test Example 4: herbicidal effect by soil treatment (Table 19, symbol K); format: in vivo, Italian ryegrass (Lolium multiflorum); settings: amount of applied herbicide 320 g/ha
In short: as §1

wild oat [14] = test: Test Example 5: herbicidal effect by foliage application, plastic box (Table 20, symbol I); format: in vivo, wild oat (Avena fatua); settings: 320 g/ha, evaluated three weeks after application
In short: as §2

velvetleaf [15] = test: Test Example 5: herbicidal effect by foliage application, plastic box (Table 20, symbol M); format: in vivo, velvetleaf (Abutilon theophrasti); settings: 320 g/ha, evaluated three weeks after application
In short: as §2

blackgrass [16] = test: Test Example 4: herbicidal effect by soil treatment (Table 19, symbol J); format: in vivo, blackgrass (Alopecurus myosuroides); settings: amount of applied herbicide 320 g/ha
In short: as §1

southern crabgrass [17] = test: Test Example 5: herbicidal effect by foliage application, plastic box (Table 20, symbol F); format: in vivo, southern crabgrass (Digitaria ciliaris); settings: 320 g/ha, evaluated three weeks after application
In short: as §2

wild oat [18] = test: Test Example 4: herbicidal effect by soil treatment (Table 19, symbol I); format: in vivo, wild oat (Avena fatua); settings: amount of applied herbicide 320 g/ha
In short: as §1

blackgrass [19] = test: Test Example 5: herbicidal effect by foliage application, plastic box (Table 20, symbol J); format: in vivo, blackgrass (Alopecurus myosuroides); settings: 320 g/ha, evaluated three weeks after application
In short: as §2

green foxtail [20] = test: Test Example 4: herbicidal effect by soil treatment (Table 19, symbol G); format: in vivo, green foxtail (Setaria viridis); settings: amount of applied herbicide 320 g/ha
In short: as §1

lambsquarters [21] = test: Test Example 5: herbicidal effect by foliage application, plastic box (Table 20, symbol O); format: in vivo, lambsquarters (Chenopodium album); settings: 320 g/ha, evaluated three weeks after application
In short: as §2

windgrass [22] = test: Test Example 4: herbicidal effect by soil treatment (Table 19, symbol L); format: in vivo, windgrass (Apera spica-venti); settings: amount of applied herbicide 320 g/ha
In short: as §1

green foxtail [23] = test: Test Example 5: herbicidal effect by foliage application, plastic box (Table 20, symbol G); format: in vivo, green foxtail (Setaria viridis); settings: 320 g/ha, evaluated three weeks after application
In short: as §2

persian speedwell [24] = test: Test Example 4: herbicidal effect by soil treatment (Table 19, symbol R); format: in vivo, Persian speedwell (Veronica persica); settings: amount of applied herbicide 320 g/ha
In short: as §1

redroot pigweed [25] = test: Test Example 4: herbicidal effect by soil treatment (Table 19, symbol N); format: in vivo, redroot pigweed (Amaranthus retroflexus); settings: amount of applied herbicide 320 g/ha
In short: as §1

[26] = amount of applied herbicide 320 g/ha
[27] = foliage application after 14-day growth

## CCCC(=O)Oc1c(C)nn(C)c(=O)c1-c1c(-c2ccc(C#N)cc2)sc2ccc(C)cc12 [2-147]
Southern crabgrass [1]
  F: southern crabgrass, herbicidal effect rating: 0 (Herbicidal rate of 5% or less (almost no effect))
Velvetleaf [2]
  M: velvetleaf, herbicidal effect rating: 0 (Herbicidal rate of 5% or less (almost no effect))
Chickweed [3]
  P: chickweed, herbicidal effect rating: 4 (Herbicidal rate of 70% or more and less than 90%)
Lambsquarters [4]
  O: lambsquarters, herbicidal effect rating: 0 (Herbicidal rate of 5% or less (almost no effect))
Redroot pigweed [5]; foliage application
  herbicidal effect on N: redroot pigweed (criteria 0-5): 5 (Herbicidal rate of 90% or more (almost completely withered))
Barnyard grass [6]; [26]
  herbicidal effect on H: barnyard grass: 1 (Herbicidal rate of 5% or more and less than 20%)
Persian speedwell [7]; foliage application
  herbicidal effect on R: persian speedwell (criteria 0-5): 5 (Herbicidal rate of 90% or more (almost completely withered))
Chickweed [8]; foliage application
  herbicidal effect on P: chickweed (criteria 0-5): 5 (Herbicidal rate of 90% or more (almost completely withered))
Windgrass [9]
  herbicidal effect on L: windgrass (criteria 0-5): 0 (Herbicidal rate of 5% or less (almost no effect))
Chinese sprangletop; [26]
  herbicidal effect on D: Chinese sprangletop: 0 (Herbicidal rate of 5% or less (almost no effect))
Italian ryegrass [10]; foliage application
  herbicidal effect on K: Italian ryegrass (criteria 0-5): 0 (Herbicidal rate of 5% or less (almost no effect))
Rice flat sedge; [26]
  herbicidal effect on E: rice flat sedge: 5 (Herbicidal rate of 90% or more (almost completely withered))
Barnyard grass [11]; foliage application
  herbicidal effect on H: barnyard grass (criteria 0-5): 0 (Herbicidal rate of 5% or less (almost no effect))
Barnyard grass [12]
  H: barnyard grass, herbicidal effect rating: 0 (Herbicidal rate of 5% or less (almost no effect))
Italian ryegrass [13]
  K: Italian ryegrass, herbicidal effect rating: 0 (Herbicidal rate of 5% or less (almost no effect))
Wild oat [14]; foliage application
  herbicidal effect on I: wild oat (criteria 0-5): 0 (Herbicidal rate of 5% or less (almost no effect))
Velvetleaf [15]; foliage application
  herbicidal effect on M: velvetleaf (criteria 0-5): 4 (Herbicidal rate of 70% or more and less than 90%)
Blackgrass [16]
  J: blackgrass, herbicidal effect rating: 0 (Herbicidal rate of 5% or less (almost no effect))
Southern crabgrass [17]; foliage application
  herbicidal effect on F: southern crabgrass (criteria 0-5): 0 (Herbicidal rate of 5% or less (almost no effect))
Wild oat [18]
  I: wild oat, herbicidal effect rating: 0 (Herbicidal rate of 5% or less (almost no effect))
Blackgrass [19]; foliage application
  herbicidal effect on J: blackgrass (criteria 0-5): 0 (Herbicidal rate of 5% or less (almost no effect))
Green foxtail [20]
  G: green foxtail, herbicidal effect rating: 0 (Herbicidal rate of 5% or less (almost no effect))
Lambsquarters [21]; foliage application
  herbicidal effect on O: lambsquarters (criteria 0-5): 3 (Herbicidal rate of 40% or more and less than 70%)
Windgrass [22]
  L: windgrass, herbicidal effect rating: 0 (Herbicidal rate of 5% or less (almost no effect))
Green foxtail [23]; foliage application
  herbicidal effect on G: green foxtail (criteria 0-5): 0 (Herbicidal rate of 5% or less (almost no effect))
Persian speedwell [24]
  R: persian speedwell, herbicidal effect rating: 5 (Herbicidal rate of 90% or more (almost completely withered))

## Cc1nn(C)c(=O)c(-c2c(-c3ccc(F)cc3)sc3c(F)cccc23)c1O [4-001]
Southern crabgrass [1]
  Herbicidal effect by soil treatment, F: southern crabgrass: 0 (Herbicidal rate of 5% or less (almost no effect))
Velvetleaf [2]
  Herbicidal effect by soil treatment, M: velvetleaf: 3 (Herbicidal rate of 40% or more and less than 70%)
Chickweed [3]
  Herbicidal effect by soil treatment, P: chickweed: 4 (Herbicidal rate of 70% or more and less than 90%)
Lambsquarters [4]
  Herbicidal effect by soil treatment, O: lambsquarters: 5 (Herbicidal rate of 90% or more (almost completely withered))
Redroot pigweed [5]; [27]
  herbicidal effect on N: redroot pigweed (evaluation grade 0-5): 3 (Herbicidal rate of 40% or more and less than 70%)
Barnyard grass [6]; 320 g/ha
  herbicidal effect on barnyard grass (H): 4 (Herbicidal rate of 70% or more and less than 90%)
Persian speedwell [7]; [27]
  herbicidal effect on R: persian speedwell (evaluation grade 0-5): 5 (Herbicidal rate of 90% or more (almost completely withered))
Chickweed [8]; [27]
  herbicidal effect on P: chickweed (evaluation grade 0-5): 5 (Herbicidal rate of 90% or more (almost completely withered))
Chinese sprangletop; 320 g/ha
  herbicidal effect on Chinese sprangletop (D): 3 (Herbicidal rate of 40% or more and less than 70%)
Italian ryegrass [10]; [27]
  herbicidal effect on K: Italian ryegrass (evaluation grade 0-5): 2 (Herbicidal rate of 20% or more and less than 40%)
Rice flat sedge; 320 g/ha
  herbicidal effect on rice flat sedge (E): 5 (Herbicidal rate of 90% or more (almost completely withered))
Barnyard grass [11]; [27]
  herbicidal effect on H: barnyard grass (evaluation grade 0-5): 2 (Herbicidal rate of 20% or more and less than 40%)
Barnyard grass [12]
  Herbicidal effect by soil treatment, H: barnyard grass: 0 (Herbicidal rate of 5% or less (almost no effect))
Italian ryegrass [13]
  Herbicidal effect by soil treatment, K: Italian ryegrass: 0 (Herbicidal rate of 5% or less (almost no effect))
Wild oat [14]; [27]
  herbicidal effect on I: wild oat (evaluation grade 0-5): 0 (Herbicidal rate of 5% or less (almost no effect))
Velvetleaf [15]; [27]
  herbicidal effect on M: velvetleaf (evaluation grade 0-5): 5 (Herbicidal rate of 90% or more (almost completely withered))
Blackgrass [16]
  Herbicidal effect by soil treatment, J: blackgrass: 0 (Herbicidal rate of 5% or less (almost no effect))
Southern crabgrass [17]; [27]
  herbicidal effect on F: southern crabgrass (evaluation grade 0-5): 0 (Herbicidal rate of 5% or less (almost no effect))
Redroot pigweed [25]
  Herbicidal effect by soil treatment, N: redroot pigweed: 2 (Herbicidal rate of 20% or more and less than 40%)
Wild oat [18]
  Herbicidal effect by soil treatment, I: wild oat: 0 (Herbicidal rate of 5% or less (almost no effect))
Blackgrass [19]; [27]
  herbicidal effect on J: blackgrass (evaluation grade 0-5): 2 (Herbicidal rate of 20% or more and less than 40%)
Green foxtail [20]
  Herbicidal effect by soil treatment, G: green foxtail: 0 (Herbicidal rate of 5% or less (almost no effect))
Lambsquarters [21]; [27]
  herbicidal effect on O: lambsquarters (evaluation grade 0-5): 2 (Herbicidal rate of 20% or more and less than 40%)
Windgrass [22]
  Herbicidal effect by soil treatment, L: windgrass: 0 (Herbicidal rate of 5% or less (almost no effect))
Green foxtail [23]; [27]
  herbicidal effect on G: green foxtail (evaluation grade 0-5): 4 (Herbicidal rate of 70% or more and less than 90%)
Persian speedwell [24]
  Herbicidal effect by soil treatment, R: persian speedwell: 4 (Herbicidal rate of 70% or more and less than 90%)
